In patent US20200323790A1, “METHOD FOR TREATMENT OF ACUTE LUNG INJURY BY USE OF KIRENOL” (CHUNG SHAN MEDICAL UNIVERSITY, priority 2019, published 2020):

Experiments:
BALB/c mice [1] = assay: Neutrophils in BALF (Giemsa stain) in LPS-induced ALI mice; type: in vivo; settings: kirenol 3, 10, 30 mg/kg IP; vs LPS stimulated group; FIG. 4
Description: (§1) BALB/c mice (5-7 weeks old) are obtained from the National Laboratory Animal Center (NLAC) and maintained in the laboratory for a week in order to adapt to the environment. Then experiments are carried out as follows. The mice are divided into three groups. The control group: mice in the group are injected with normal saline by intratracheal injection (IT). The LPS stimulated group: mice in the group are treated with a 50 μL solution containing 100 μg of lipopolysaccharide (LPS) by IT for inducing ALI. The kirenol group: mice are given an intraperitoneal injection (IP) of 3 mg/kg, 10 mg/kg, and 30 mg/kg of kirenol respectively. After 30 minutes, each mouse is treated with 100 μg of LPS by IT. The dexamethasone group: mice are dosed with 1 mg/kg of dexamethasone by IP and then treated with 100 μg of LPS by IT after 30 minutes.
(§2) The mice in the respective group are killed 6 hours after LPS administration. […]
(§3) Polymorphonuclear leucocytes and protein in the capillary flow into the alveoli while alveolar capillary barrier being damaged. Thus the integrity of alveolar capillary barrier can be evaluated by analysis of the content of polymorphonuclear leucocytes and protein in the BALF. […]

BALB/c mice [2] = assay: Protein content in BALF (Bradford assay) in LPS-induced ALI mice; type: in vivo; settings: kirenol 3, 10, 30 mg/kg IP, FIG. 3
Description: as §1, §2, §3

BALB/c mice [3] = assay: Lipid peroxidation (malondialdehyde, MDA) in lung of LPS-induced ALI mice; type: in vivo; settings: kirenol 3, 10, 30 mg/kg IP; vs LPS stimulated group; FIG. 5
Description: as §1, §2
For evaluation of lung tissue damage, the amount of malondialdehyde (MDA), the final product of lipid peroxidation in lung, is measured. […] Lastly absorbance of the mixed solution is measured at 532 nm.

BALB/c mice [4] = assay: Lung tissue wet/dry ratio (lung edema) in LPS-induced ALI mice; type: in vivo; settings: kirenol 3, 10, 30 mg/kg IP, FIG. 2
Description: as §1
(§4) The mice in the respective group are killed 6 hours after LPS administration. Then use bronchoalveolar lavage (BAL) to get (Bronchoalveolar lavage fluid (BALF). And perform differential blood count, detect neutrophil activity and measure protein content in BALF. The lung tissue of the mice is used in histopathology examination, analysis of pulmonary edema, lipid peroxidation assay, and antioxidant activity analysis.
The mice are killed and lung tissue is obtained. […] Thereby the wet/dry ratio of the lung tissue is calculated by dividing the wet weight by the dry weight.

[5] = system: superoxide dismutase (SOD); assay: Antioxidant enzyme activity in lung tissue: SOD; type: in vivo, mice; settings: kirenol 3, 10, 30 mg/kg IP; vs LPS stimulated group; FIG. 6
Description: as §1, §4
(§5) During acute lung injury, the increasing pulmonary oxidative stress easily leads to lung tissue damage. […]

BALB/c mice [6] = assay: Histopathology (H&E) of lung in LPS-induced ALI mice; type: in vivo; settings: LPS 100 μg IT; kirenol 3, 10, 30 mg/kg IP or dexamethasone 1 mg/kg IP 30 min before LPS; 6 h after LPS; FIG. 1
Description: as §1, §4
Kirenol used is obtained from ChemFaces (Catalog No. CFN98867) dissolved in Dimethyl sulfoxide (DMSO). […]

[7] = system: glutathione peroxidase (GSH); assay: Antioxidant enzyme activity in lung tissue: glutathione peroxidase; type: in vivo, mice; settings: kirenol 3, 10, 30 mg/kg IP; vs LPS stimulated group; FIG. 8
Description: as §1, §4, §5

catalase (CAT) = assay: Antioxidant enzyme activity in lung tissue: CAT; type: in vivo, mice; settings: kirenol 3, 10, 30 mg/kg IP; vs LPS stimulated group; FIG. 7
Description: as §1, §4, §5

SMILES: C[C@@]1(CO)C[C@@H](O)C[C@@]2(C)[C@@H]3CC[C@](C)([C@@H](O)CO)C=C3CC[C@H]12 [Kirenol]
- number of neutrophils / neutrophil infiltration in alveolar cavity (BALB/c mice [1]): reduces neutrophil infiltration in alveolar cavity caused by LPS in a dose dependent manner
- integrity of alveolar capillary barrier (BALB/c mice [2]): prevents damage to the integrity of alveolar capillary barrier caused by LPS in a dose dependent way
- protein content in BALF (BALB/c mice [2]; vs LPS stimulated group): lowered
- lipid peroxidation in lung (MDA) (BALB/c mice [3]): prevents lipid peroxidation caused by LPS in a dose dependent manner
- lung edema induced by LPS (BALB/c mice [4]): improves lung edema induced by LPS in a dose dependent fashion
- wet/dry ratio of the lung tissue (BALB/c mice [4]; vs LPS stimulated group): reduced
- activity of SOD in lung [5]: increased in a dose dependent manner
- hyaline membrane formation in lung (BALB/c mice [6]): reduces hyaline membrane formation in lung and immune cell infiltration induced by LPS in a dose dependent manner
- immune cell infiltration in lung (BALB/c mice [6]): reduces hyaline membrane formation in lung and immune cell infiltration induced by LPS in a dose dependent manner
- activity of GSH (glutathione peroxidase) in lung [7]: increased in a dose dependent manner
- activity of CAT in lung (catalase (CAT)): increased in a dose dependent manner
